Results taken from US11214803B2, “Modulators of YAP1 expression” (Ionis Pharmaceuticals, Inc., priority 2019, dated 2022).
Strand notation (5' to 3'): a small letter for the sugar, then the base; units joined by * are phosphorothioate-linked, units joined directly phosphodiester-linked; [ ] holds rarer units or linkages, { } end groups; capitals alone tell only the bases. e = 2'-O-(2-methoxyethyl) (MOE); k = constrained ethyl (cEt); [5mC] = 5-methylcytosine; d = 2'-deoxy (DNA); m = 2'-O-methyl

Tested on: Yap1 mRNA
Assay: Antisense inhibition of human Yap1 in SNU-449 cells by modified oligonucleotides, single dose (Example 5, RTS36584)
Format: cell-based
Summary of the method: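 SNU-449 cells were given 2,000 nM oligonucleotide by free uptake for about 48 h. Yap1 mRNA was then measured by RT-qPCR with primer probe set RTS36584, normalized to total RNA by RIBOGREEN and expressed as percent of untreated control.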

[1] = Table 41, SNU-449 cells, 10,000 cells per well, free uptake, 2,000 nM modified oligonucleotide, approximately 48 hours, RTS36584, normalized to RIBOGREEN, Yap1 mRNA relative to untreated control cells
[2] = Table 46, Yap1 mRNA as percent of untreated control, SNU-449 cells, single dose
[3] = Table 50, Yap1 mRNA remaining as percent of untreated control (UT), SNU-449 cells, single dose
[4] = Table 40 (separate experiment), SNU-449 cells, 10,000 cells per well, free uptake, 2,000 nM oligonucleotide, approx. 48 hours, RTS36584, normalized to RIBOGREEN, Yap1 mRNA relative to untreated control
[5] = Table 45, Yap1 mRNA as percent of untreated control, SNU-449 cells, single dose
[6] = Table 48, Yap1 mRNA level relative to untreated control, modified oligonucleotides targeting SEQ ID NO.: 1 and 2
[7] = Table 42 (separate experiment), SNU-449 cells, 10,000 cells per well, free uptake, 2,000 nM modified oligonucleotide, approximately 48 hours, RTS36584, normalized to RIBOGREEN, Yap1 mRNA relative to untreated control cells
[8] = Table 52, Yap1 mRNA, modified oligonucleotides targeting SEQ ID NO: 1 and 2
[9] = Table 49, Yap1 mRNA level relative to untreated control, modified oligonucleotides targeting SEQ ID NO.: 1 and 2
[10] = Table 39, SNU-449 cells, 10,000 cells per well, free uptake, 2,000 nM oligonucleotide, approx. 48 hours, RTS36584, normalized to RIBOGREEN, Yap1 mRNA relative to untreated control
[11] = Table 44 experiment, SNU-449 cells, 10,000 cells per well, free uptake, 2,000 nM, approximately 48 hours, RTS36584, Yap1 mRNA normalized to RIBOGREEN, relative to untreated control cells
[12] = Table 51, Yap1 mRNA remaining as percent of untreated control (UT), SNU-449 cells, single dose

Substance: 1198643 (kA*kT*dA*dT*dT*dA*dG*dA*dG*dT*dA*dT*kG*eT*kG*eG; antisense) [Compound 1198643]
- YAP1 (% UTC) [1]: 25 % UTC

Substance: 1198822 (kT*kA*dT*dA*dA*d[5mC]*dT*dG*dG*dG*d[5mC]*kA*eA*kA*eT*kT; antisense) [Compound 1198822]
- YAP1 (% UT) [2]: 97 % UT

Substance: 1198599 (antisense k[5mC]*kA*kA*d[5mC]*dT*d[5mC]*dT*dT*dA*dT*dA*dT*kG*kG*kT*eT) [Compound 1198599]
- YAP1 (% UT) [3]: 90 % UT

Substance: 1198781 (antisense kG*eT*kA*dA*dT*dA*dT*dT*dG*d[5mC]*dA*dA*eT*e[5mC]*kT*kG) [Compound 1198781]
- YAP1 (% UTC) [4]: 25 % UTC

Substance: 1198937 (k[5mC]*kA*dG*dA*dT*dT*dT*dA*dG*dG*dA*kT*dG*k[5mC]*dA*kT; antisense) [Compound 1198937]
- YAP1 (% UTC) [5]: 48 % UTC

Substance: 1198625 (kG*kA*k[5mC]*dT*dA*dA*dG*dT*dA*dA*dG*dG*kT*kT*kT*e[5mC]; antisense) [Compound 1198625]
- YAP1 (% UT) [3]: 64 % UT

Substance: 1198969 (kA*kA*dG*dT*dA*dA*dG*dG*dT*dT*dT*k[5mC]*d[5mC]*k[5mC]*dA*kG; antisense) [Compound 1198969]
- YAP1 (% UTC) [5]: 31 % UTC

Substance: 1197213 (antisense kT*kG*kT*dA*dT*dG*dT*d[5mC]*dA*dG*dA*dA*dG*kA*kG*kT) [Compound 1197213]
- YAP1 (% UT) [6]: 5 % UT

Substance: 1198215 (kT*k[5mC]*dT*dA*dT*dA*dT*dT*dA*dG*dA*eG*eT*eA*kT*kG; antisense) [Compound 1198215]
- YAP1 (% UTC) [7]: 120 % UTC

Substance: 1198777 (kA*eT*kT*dG*d[5mC]*dA*dA*dT*d[5mC]*dT*dG*dT*e[5mC]*eT*kG*kA; antisense) [Compound 1198777]
- YAP1 (% UTC) [4]: 84 % UTC

Substance: 1198607 (antisense kA*kT*kG*dT*dA*dA*dT*dA*dT*dT*dG*d[5mC]*kA*kA*kT*e[5mC]) [Compound 1198607]
- YAP1 (% UT) [3]: 77 % UT

Substance: 1200827 (kA*kG*kT*dG*d[5mC]*mU*dT*dT*dG*dG*dA*dA*dG*kA*kT*k[5mC]) [Compound 1200827]
- YAP1 (% UT) [8]: 67 % UT

Substance: 1198676 (antisense kT*k[5mC]*dA*dG*dA*dT*dT*dT*dA*dG*dG*dA*kT*eG*k[5mC]*eA) [Compound 1198676]
- YAP1 (% UTC) [1]: 52 % UTC

Substance: 1198579 (antisense kT*kG*k[5mC]*dT*dT*dT*dG*dG*dA*dA*dG*dA*kT*k[5mC]*kT*eG) [Compound 1198579]
- YAP1 (% UT) [9]: 34 % UT

Substance: 1198679 (antisense TTATATGGTTTTGTGT; cEt/MOE gapmer, phosphorothioate, chemistry not fully specified) [Compound 1198679]
- YAP1 (% UTC) [7]: 54 % UTC

Substance: 1198924 (kT*kT*dT*dG*dG*dA*dA*dG*dA*dT*d[5mC]*kT*dG*kA*dA*kA; antisense) [Compound 1198924]
- YAP1 (% UTC) [5]: 75 % UTC

Substance: 1076439 (k[5mC]*kT*kT*dA*dT*dA*dT*dG*dG*dT*dT*dT*dT*kG*kT*kG) [Compound 1076439]
- YAP1 (% UT) [6]: 31 % UT

Substance: 1198335 (kT*kT*kA*dT*dA*dT*dG*dG*dT*dT*dT*dT*kG*eT*kG*eT; antisense) [Compound 1198335]
- YAP1 (% UT) [9]: 26 % UT

Substance: 1198417 (k[5mC]*dA*dG*dA*dT*dT*dT*dA*dG*dG*dA*kT*eG*k[5mC]*eA*kT; antisense) [Compound 1198417]
- YAP1 (% UTC) [10]: 40 % UTC

Substance: 1198365 (k[5mC]*kT*kA*dA*dG*dT*dA*dA*dG*dG*dT*dT*kT*e[5mC]*k[5mC]*e[5mC]; antisense) [Compound 1198365]
- YAP1 (% UT) [9]: 13 % UT

Substance: 1198537 (k[5mC]*kT*dA*dA*dG*dT*dA*dA*dG*dG*dT*eT*kT*e[5mC]*k[5mC]*e[5mC]; antisense) [Compound 1198537]
- YAP1 (% UTC) [11]: 24 % UTC

Substance: 1198958 (kT*kG*dT*dA*dT*dG*dT*d[5mC]*dA*dG*dA*kA*dG*kA*dG*kT; antisense) [Compound 1198958]
- YAP1 (% UTC) [5]: 12 % UTC

Substance: 1197311 (kT*kT*kT*dA*mU*dG*dT*dA*dA*dT*dA*dT*dT*kG*k[5mC]*kA; antisense) [Compound 1197311]
- YAP1 (% UT) [12]: 27 % UT

Substance: 1197314 (kA*kA*kA*dG*mU*dG*dT*dA*dT*dG*dT*d[5mC]*dA*kG*kA*kA; antisense) [Compound 1197314]
- YAP1 (% UT) [12]: 22 % UT

Substance: 1200804 (kA*kG*kG*dT*dA*mU*dA*dA*d[5mC]*dT*dG*dG*dG*k[5mC]*kA*kA; antisense) [Compound 1200804]
- YAP1 (% UT) [8]: 44 % UT

Substance: 1095547 (antisense kA*k[5mC]*kT*dG*dA*dG*dG*dT*dA*dT*dA*dA*k[5mC]*eT*kG*eG) [Compound 1095547]
- YAP1 (% UT) [9]: 42 % UT

Substance: 1198966 (kA*kA*d[5mC]*dT*dT*dT*dA*dA*dA*dG*dT*kG*dT*kA*dT*kG) [Compound 1198966]
- YAP1 (% UT) [2]: 78 % UT

Substance: 1198347 (kG*kT*kA*dA*dT*dA*dT*dT*dG*d[5mC]*dA*dA*kT*e[5mC]*kT*eG; antisense) [Compound 1198347]
- YAP1 (% UT) [6]: 14 % UT

Substance: 1197246 (antisense kA*kG*k[5mC]*dA*mC*dT*dT*dT*dT*dA*d[5mC]*dA*dT*kT*kA*kG) [Compound 1197246]
- YAP1 (% UT) [3]: 33 % UT

Substance: 1197315 (kA*kA*k[5mC]*dT*mU*dT*dA*dA*dA*dG*dT*dG*dT*kA*kT*kG; antisense) [Compound 1197315]
- YAP1 (% UT) [12]: 116 % UT

Substance: 1198567 (antisense k[5mC]*kT*kT*dT*dT*dA*d[5mC]*dA*dT*dT*dA*dG*kG*kA*kA*e[5mC]) [Compound 1198567]
- YAP1 (% UT) [9]: 54 % UT

Substance: 1198778 (kA*eT*kA*dT*dT*dG*d[5mC]*dA*dA*dT*d[5mC]*dT*eG*eT*k[5mC]*kT; antisense) [Compound 1198778]
- YAP1 (% UTC) [4]: 55 % UTC

Substance: 1197204 (antisense k[5mC]*kA*kA*d[5mC]*dT*d[5mC]*dT*dT*dA*dT*dA*dT*dG*kG*kT*kT) [Compound 1197204]
- YAP1 (% UT) [6]: 89 % UT

Substance: 1198665 (antisense kT*kG*d[5mC]*dT*dT*dT*dG*dG*dA*dA*dG*dA*kT*e[5mC]*kT*eG) [Compound 1198665]
- YAP1 (% UTC) [1]: 38 % UTC

Substance: 1198524 (kT*kG*dT*dA*dT*dG*dT*d[5mC]*dA*dG*dA*eA*kG*eA*kG*eT; antisense) [Compound 1198524]
- YAP1 (% UTC) [11]: 3 % UTC

Substance: 1200838 (kA*kT*kA*dT*dG*mG*dT*dT*dT*dT*dG*dT*dG*kT*kG*kT; antisense) [Compound 1200838]
- YAP1 (% UT) [8]: 65 % UT

Substance: 1198245 (k[5mC]*kA*dG*dA*dT*dT*dT*dA*dG*dG*dA*eT*eG*e[5mC]*kA*kT; antisense) [Compound 1198245]
- YAP1 (% UTC) (Table 43 experiment, SNU-449 cells, 10,000 cells per well, free uptake, 2,000 nM, approximately 48 hours, RTS36584, Yap1 mRNA normalized to RIBOGREEN, relative to untreated control cells): 46 % UTC

Substance: 1198855 (kT*kT*dA*dT*dA*dT*dG*dG*dT*dT*dT*kT*eG*kT*eG*kT; antisense) [Compound 1198855]
- YAP1 (% UT) [2]: 30 % UT

Substance: 1198390 (kA*dG*dG*dT*dA*dT*dA*dA*d[5mC]*dT*dG*kG*eG*k[5mC]*eA*kA; antisense) [Compound 1198390]
- YAP1 (% UTC) [10]: 37 % UTC

Substance: 1198886 (kA*k[5mC]*dT*dA*dA*dG*dT*dA*dA*dG*dG*kT*eT*kT*e[5mC]*k[5mC]; antisense) [Compound 1198886]
- YAP1 (% UT) [2]: 45 % UT

Substance: 1009395 (k[5mC]*kT*kG*dA*dG*dG*dT*dA*dT*dA*dA*d[5mC]*dT*kG*kG*kG; antisense) [Compound 1009395]
- YAP1 (% UT) [6]: 43 % UT

Substance: 1198314 (kA*kA*kG*d[5mC]*dA*d[5mC]*dT*dT*dT*dT*dA*d[5mC]*kA*eT*kT*eA; antisense) [Compound 1198314]
- YAP1 (% UT) [6]: 82 % UT

Substance: 1198647 (kG*kG*dT*dA*dT*dA*dA*d[5mC]*dT*dG*dG*dG*k[5mC]*eA*kA*eA) [Compound 1198647]
- YAP1 (% UTC) [7]: 47 % UTC

Substance: 1198788 (antisense kA*eA*kG*dT*dG*dT*dA*dT*dG*dT*d[5mC]*dA*eG*eA*kA*kG) [Compound 1198788]
- YAP1 (% UTC) [1]: 17 % UTC

Substance: 1198211 (kA*kT*dT*dA*dG*dA*dG*dT*dA*dT*dG*eT*eG*eG*k[5mC]*kA; antisense) [Compound 1198211]
- YAP1 (% UTC) [7]: 19 % UTC

Substance: 1198301 (kT*k[5mC]*kT*dA*dT*dA*dT*dT*dA*dG*dA*dG*kT*eA*kT*eG; antisense) [Compound 1198301]
- YAP1 (% UT) [6]: 43 % UT

Substance: 1198515 (kA*kT*dT*dG*d[5mC]*dA*dA*dT*d[5mC]*dT*dG*eT*k[5mC]*eT*kG*eA; antisense) [Compound 1198515]
- YAP1 (% UTC) [11]: 44 % UTC

Substance: 1198413 (kT*dT*dT*dA*dG*dG*dA*dT*dG*d[5mC]*dA*kT*eG*kG*eT*kT) [Compound 1198413]
- YAP1 (% UTC) [10]: 29 % UTC

Substance: 1198868 (kT*kG*dT*dA*dA*dT*dA*dT*dT*dG*d[5mC]*kA*eA*kT*e[5mC]*kT; antisense) [Compound 1198868]
- YAP1 (% UT) [2]: 49 % UT
